Earlier results in patent EP2708126A1, “Insecticidal aerosol” (priority 2012, dated 2014).

Details: rats, through ingestion

Row | SMILES | LD50 [mg/kg]
1 | CC1(C)C(C=C(Cl)Cl)C1C(=O)OC(C#N)c1cccc(Oc2ccccc2)c1 (racemic) [Alpha cypermethrin] | 79
2 | CNC(=O)Oc1cccc2c1OC(C)(C)O2 [Bendiocarb, 2,2-dimethyl-1,3-benzodioxol-4-yl-N-methylcarbamate] | 55
3 | CC1(C)C(C=C(Cl)Cl)C1C(=O)OCc1cccc(Oc2ccccc2)c1 (stereo not drawn) [Permethrin, 3-phenoxybenzyl-3-(2,2-dichlorovinyl)-2,2-dimethylcyclopropane-carboxylate] | 383
